The assay has as its target Glycogen synthase kinase-3 alpha (Homo sapiens) (UniProt P49840). Put plainly: concentration-response blocking of human GSK3A – biochemical, luminescence, cell-free homogeneous, retest, dose response (AID 463203). The settings on record: GSK-3 alpha enzyme, ADP-Glo luminescence, 60 min. A general note: In ADP-Glo the light output rises with the ADP produced.

Calls of active or inactive are those of the source.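 How the source made its calls: active means more than half of replicate measurements showing over 20% loss of kinase signal relative to plate controls; inconclusive means some but at most half of replicates over 20% loss; inactive means no replicate over 20% signal loss.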

Sequence of Glycogen synthase kinase-3 alpha (Homo sapiens) (P49840 whole entry, looked up): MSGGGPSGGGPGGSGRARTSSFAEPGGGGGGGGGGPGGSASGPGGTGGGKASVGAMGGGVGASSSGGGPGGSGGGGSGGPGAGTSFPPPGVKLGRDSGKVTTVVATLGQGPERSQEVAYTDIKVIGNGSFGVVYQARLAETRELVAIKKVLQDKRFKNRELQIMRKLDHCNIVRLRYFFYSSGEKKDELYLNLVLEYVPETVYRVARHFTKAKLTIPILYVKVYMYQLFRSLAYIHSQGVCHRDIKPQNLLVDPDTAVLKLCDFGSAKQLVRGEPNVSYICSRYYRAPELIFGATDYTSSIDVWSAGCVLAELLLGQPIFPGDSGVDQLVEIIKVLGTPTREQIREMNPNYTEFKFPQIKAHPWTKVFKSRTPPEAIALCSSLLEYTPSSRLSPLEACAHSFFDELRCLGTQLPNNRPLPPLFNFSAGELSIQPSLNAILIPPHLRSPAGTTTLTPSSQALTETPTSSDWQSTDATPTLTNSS

As for `COc1ccc(Nc2nc(Cl)c(C=O)s2)cc1`, the AC50 is > 30 µM (inactive). As to `CC(/C=N/NC(=O)CSc1nc2ccccc2n1C)=C\c1ccco1`, the AC50 is > 30 µM (inactive). As for `CCC(CC)c1nnc(NC(=O)Oc2ccccc2)s1`, the AC50 was > 30 µM (inactive). As to `CCC(=O)N1CCN(c2cc(NCC3CCCO3)c(F)cc2[N+](=O)[O-])CC1` (configuration not stated), the AC50 is 21.7 µM. The value for `C/C(=N\NC(=O)c1nnn(-c2nonc2N)c1-c1cccs1)c1cccnc1` was 1.33 µM. With `COc1ccc(-c2cc(=O)oc3cc(O)ccc23)cc1` the figure was 19.5 µM; with `COc1cc(CN2CCN(Cc3ccc(C)cc3)CC2)c([N+](=O)[O-])cc1OC`, > 30 µM (inactive). With `CCOC(=O)c1nnn(-c2nonc2N)c1-c1ccc(F)cc1` the figure was 16.1 µM; with `CCOC(=O)c1c(NC(=S)N2CCOCC2)sc2c1CCN(C(=O)OCC)C2`, > 30 µM (inactive); with `COc1ccc(NC(=O)Nc2ccc(F)cc2F)c(C)c1`, > 30 µM (inactive). Consider `O=c1[nH]c2c(s1)C(c1cccnc1)C1C3CCC(C3)C1S2` (configuration not stated), for which the AC50 is 8.66 µM.

Consider `O=C1C(SCCO)=C(SCCO)C(=O)c2ccccc21`, for which the AC50 is > 30 µM (inactive).

As for `N#C/C(=N\Nc1ccccc1)C(N)=S`, the AC50 was > 30 µM (inactive). For the molecule `NC(=O)c1cc([N+](=O)[O-])ccc1NCc1cccc(N)c1`, the AC50 is 15.6 µM.

Take `COc1ccc(-c2noc(CSc3nc(-c4ccccc4)cc(=O)[nH]3)n2)cc1`: the AC50 was > 30 µM (inactive). With `Cc1ccc2cc(C#N)c(N3CCCN(C(=S)NCCCN(C)C)CC3)nc2c1` the figure was > 30 µM (inactive); with `COc1cccc(/C=N/Nc2ccc([N+](=O)[O-])cn2)c1O`, > 30 µM (inactive). As to `CN1/C(=C/C(=O)C2CC2)C(C)(C)c2ccccc21`, the AC50 is > 30 µM (inactive). With `COc1ccc2[nH]c(C(=O)O)c(NS(=O)(=O)c3ccc(OC)c(OC)c3)c2c1` the figure was 6.63 µM; with `CCOc1ccc2nc(NC(=O)CSc3ccccc3)sc2c1`, > 30 µM (inactive); with `CCN(CC)c1ccc(C2C(C(=O)OC(C)C)C(=O)CC(C)(O)C2C(=O)OC(C)C)cc1` (configuration not stated), > 30 µM (inactive). The value for `COc1ccccc1OC(C)C(=O)N1CCC(Cc2ccccc2)CC1` (configuration not stated) was > 30 µM (inactive); that for `COc1ccc(CC(=O)N2CCOCC2)cc1OC` was > 30 µM (inactive); that for `CC(C)c1ccc(/C=N/NC(=O)c2nnn(-c3nonc3N)c2CN(C)C2CCCCC2)cc1` was > 30 µM (inactive).

In the case of `NC(=O)c1cc([N+](=O)[O-])c(Cl)cc1NCc1cccnc1`, the AC50 is 4.43 µM. For the molecule `CC(=O)c1cccc(NC(=S)NC(=O)CC(C)C)c1`, the AC50 was > 30 µM (inactive).

Regarding `CCOc1cc(/C=C2\SC(N3CCCC(C)C3)=NC2=O)ccc1O` (configuration not stated), the AC50 was 8.87 µM. On to `COc1ccc([N+](=O)[O-])cc1NC(=O)CCN1CCN(C)CC1`, for which the AC50 is > 30 µM (inactive). With `Cc1nc(Nc2ccc(S(N)(=O)=O)cc2)oc1C` the figure was > 30 µM (inactive); with `O=C(COC(=O)c1ccc(F)cc1F)Nc1ccc(Cl)cn1`, > 30 µM (inactive); with `O=C(Nc1cccc(C(=O)N2CCOCC2)c1)c1cccnc1`, > 30 µM (inactive). The value for `Cc1ccc(C(=O)N2NC(c3ccc(F)cc3)C3C(=O)N(c4ccc(C)c(C)c4)C(=O)C32)cc1` (configuration not stated) was > 30 µM (inactive); that for `Cc1cc(=O)[nH]c2c(C)cc(S(=O)(=O)Nc3ccc(O)cc3)cc12` was > 30 µM (inactive); that for `COc1ccc(N2CCOCC2)c(NC(=O)c2ccc(Br)o2)c1` was 8.71 µM. With `CC(C)N=C(NC#N)SCc1ccc(Br)cc1` the figure was > 30 µM (inactive). On to `CC(=O)Nc1ccc(NC(=O)c2cc(-n3cnnc3)ccc2Cl)cc1`, for which the AC50 is > 30 µM (inactive). With `N#Cc1c2ccc(O)cc2n2ccccc12` the figure was 3.56 µM; with `CCOc1cccc(-c2c(C(=O)N/N=C/c3sccc3C)nnn2-c2nonc2N)c1`, > 30 µM (inactive). As to `Cc1ccccc1Cn1c(-c2ccc(=O)[nH]c2)nc2ccccc21`, the AC50 is > 30 µM (inactive). The value for `COc1ccc(CC(=O)Oc2cc(C)ccc2C)cc1` was > 30 µM (inactive).

Consider `O=c1cc(-c2ccccc2Cl)oc2c(NS(=O)(=O)c3cc(Cl)cc(Cl)c3O)ccc(O)c12`, for which the AC50 was > 30 µM (inactive).

For the molecule `COc1ccccc1Nc1nc(NCCCCO)nc(N2CCCC2)n1`, the AC50 is > 30 µM (inactive). The value for `COc1ccc(Nc2ccc(S(=O)(=O)N3CCCCC3)cc2[N+](=O)[O-])cc1OC` was > 30 µM (inactive); that for `O=c1cc(-c2ccc(O)cc2)oc2c1ccc1ccccc12` was 1.33 µM. The value for `COc1ccccc1-c1noc(CSc2nc(C)cc(=O)[nH]2)n1` was > 30 µM (inactive); that for `COC(=O)/C=C1/S/C(=N/NC(=O)c2ccccc2OC)NC1=O` was > 30 µM (inactive). With `Nc1nc(NCCOCCO)nc(N2CCCCCC2)c1[N+](=O)[O-]` the figure was 26.4 µM; with `COc1ccc(OC)c(C2CC(=O)N3CN(c4cccc(Cl)c4)CSC3=C2C#N)c1` (configuration not stated), > 30 µM (inactive). As to `COC(=O)c1c(C)c(OC(=O)c2c(C)cc(O)c(C=O)c2O)cc(C)c1O`, the AC50 was > 30 µM (inactive). For `CCc1ccc(NC(=O)N[C@H](C(=O)O)C(C)CC)cc1` (some centres not stated), the AC50 is > 30 µM (inactive). Turning to `COc1ccccc1NC(=O)c1ccc(C(=O)c2ccccc2)o1`, the AC50 was > 30 µM (inactive). For the molecule `COC(=O)C1=C(C)Nc2ncnn2C1c1ccco1` (configuration not stated), the AC50 was > 30 µM (inactive). On to `N#CC1=C2SCN(c3ccccc3)CN2C(=O)CC1c1c(Cl)cccc1Cl` (configuration not stated), for which the AC50 is > 30 µM (inactive). Consider `CCCC(=O)Nc1nn(CC)c2nc3ccc(C)cc3cc12`, for which the AC50 is > 30 µM (inactive).

For the molecule `CC1(C)Cc2c(sc3c2C2=NCCN2C=N3)CO1`, the AC50 is > 30 µM (inactive). The value for `CCN1C(=O)/C(=C\c2cccs2)C(C(=O)OC)=C1C` was > 30 µM (inactive); that for `CC(C)c1onc(C(=O)N(C)C2CCCCC2)c1[N+](=O)[O-]` was > 30 µM (inactive); that for `CCN1/C(=C/C=C/c2sc3ccccc3[n+]2CC)Sc2ccccc21` was 24.6 µM. The value for `Cc1sc2ncnc(SCC(=O)NCC3CCCO3)c2c1C` (configuration not stated) was > 30 µM (inactive); that for `CCOc1ccc(Nc2nc(NCc3ccco3)nc(N)c2[N+](=O)[O-])cc1` was > 30 µM (inactive); that for `O=C(NCCCCCCNC(=O)OCCO)OCCO` was > 30 µM (inactive). In the case of `CCC(=NCCCn1ccnc1)c1c(O)n(-c2ccccc2)c(=O)[nH]c1=O`, the AC50 is 27.8 µM. On to `Cc1ccc(S(=O)(=O)N2CCN(CC(=O)N/N=C\c3ccccn3)CC2)cc1`, for which the AC50 was > 30 µM (inactive). On to `O=C(NCCN1CCN(Cc2ccccc2Cl)CC1)Nc1ccccc1`, for which the AC50 was > 30 µM (inactive). The value for `O=C(CSc1nc2[nH]ncc2c(=O)n1-c1ccccc1)NCc1cccs1` was > 30 µM (inactive). The value for `COc1cc(C(=O)Oc2cc(C)cc(C)c2)cc(OC)c1OC` was > 30 µM (inactive); that for `O=C(c1ccc2c3n(nc2c1)-c1ccc(Cl)cc1CO3)N1CCCCC1` was > 30 µM (inactive); that for `COC(=O)c1cn(C(=O)c2ccccc2F)nc1N` was > 30 µM (inactive).

As to `O=C(CN1CCOCC1)Nc1cccc(Br)c1`, the AC50 was > 30 µM (inactive). As for `Cc1cnn(-c2cc(N/N=C/c3ccc(F)cc3)ncn2)c1`, the AC50 was > 30 µM (inactive). With `CC1=C(C(=O)OCc2ccc3c(c2)OCO3)C(c2ccccc2OCc2ccccc2)NC(=O)N1` (configuration not stated) the figure was > 30 µM (inactive). The value for `CCOC(=O)c1cnc2c(C)c(Cl)ccc2c1N1CCN(CC)CC1` was > 30 µM (inactive). The value for `Cc1ccc(N2CC(C(=O)Nc3ncc([N+](=O)[O-])s3)CC2=O)cc1` (configuration not stated) was 11.4 µM. Consider `O=C(Nc1nc2c(s1)CCCC2)c1ccc(Br)o1`, for which the AC50 is > 30 µM (inactive). In the case of `COc1cc(CN2CCN(Cc3ccc([N+](=O)[O-])cc3)CC2)c([N+](=O)[O-])cc1OC`, the AC50 was > 30 µM (inactive). With `COc1cccc(/C=N/NC(=O)COc2cccc3cccnc23)c1O`, the AC50 was > 30 µM (inactive). The value for `COc1ccccc1-c1noc(CSc2nc(N)cc(=O)[nH]2)n1` was > 30 µM (inactive). With `Clc1nccnc1N/N=C/c1ccc(Br)cc1` the figure was > 30 µM (inactive); with `Cc1ccc(C)c(N2CC(C(=O)Nc3nccs3)CC2=O)c1` (configuration not stated), > 30 µM (inactive).

Take `CCOc1cc(/C=C2\SC(N3CCCCC3)=NC2=O)ccc1O`: the AC50 is > 30 µM (inactive). Turning to `Oc1ccc2c(c1)oc1cc(O)ccc12`, the AC50 was 12 µM. As for `CCOc1ccc(Cn2nnc(C(=O)Nc3ccc(OC)cc3OC)c2N)cc1`, the AC50 was > 30 µM (inactive). Take `CC1=C(C(=O)OCc2ccccc2)C(c2cccc(Br)c2)NC(=O)N1` (configuration not stated): the AC50 is 28.7 µM. On to `O=C(c1ccco1)c1cn(CC(=O)N2CCCCC2)c2ccccc12`, for which the AC50 is > 30 µM (inactive). On to `CCOc1cccc2sc(=NC(=O)c3ccco3)n(CC(=O)OC)c12`, for which the AC50 was 7.61 µM. The value for `O=C(c1ccco1)N(Cc1ccc([N+](=O)[O-])cc1)c1ccc(Cl)cc1` was > 30 µM (inactive); that for `c1ccc(N2CCN(c3cnc4ccccc4n3)CC2)cc1` was > 30 µM (inactive); that for `CCOC(=O)c1cc(-c2ccc(C)cc2)n(CCC(=O)NC(C)CC)c1C` (configuration not stated) was > 30 µM (inactive). Regarding `Cc1sc2ncnc(N3CCC(C(=O)Nc4ccc(C#N)cc4)CC3)c2c1C`, the AC50 is > 30 µM (inactive). With `CC1(C)CC(=O)C2=C(C1)Nc1ccccc1[S@]2=O` the figure was > 30 µM (inactive). Consider `O=Cc1c(NCCc2cccc(F)c2)c2ccccc2[nH]c1=O`, for which the AC50 was 15.2 µM. Take `CC(C)(C)C(=O)c1cnc(Nc2ccccc2Cl)s1`: the AC50 was > 30 µM (inactive).

One may read the AC50 as the concentration giving half of the maximal activity seen.

Source of the values: PubChem BioAssay AID463203 (Broad Institute, 2010).
